The results in this text go back to US20230416330A1, “Optimized GIP Peptide Analogues” (Antag Therapeutics ApS, priority 2019, published 2023).

Read-outs that look alike come from different tables or passages of the source. Starred links: 1 amine or outer side, 2 acyl side, 3 side chain; linkers in the order of their positions; H or OH if unused. Non-standard residues stand in square brackets, D forms with d. Residues, ends and D or L forms follow the SMILES beside them. Groups on a side chain read outwards from the residue. *: point of attachment. C18 diacid = O=C(O)CCCCCCCCCCCCCCCCC(=O)*; C16 diacid = O=C(O)CCCCCCCCCCCCCCC(=O)*; γGlu = O=C(O)[C@H](CCC(=O)[*:2])N[*:1]; Glutaryl = O=C(CCCC(=O)[*:2])[*:1]; AEEA = NCCOCCOCC(=O)O; Aib = CC(C)(N)C(=O)O

The nature of data set [1]: Solubility by visual inspection of peptide solutions. In kind it is physicochemical. In outline:
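Peptides dissolved at 1, 5, 7.5 or 15 mg/ml in 50 mM sodium phosphate pH 7.4 or water adjusted to pH 7.4 with NaOH, with gentle mixing. Immediate solubility judged visually as a clear, colorless solution.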

The nature of data set [2]: Physical stability: fibril formation in Thioflavin T (ThT) assay with agitation. The data set is classed as physicochemical. Conditions: 25° C., agitation. In a few lines:
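Peptides at 1, 5, 7.5 or 15 mg/ml in 50 mM sodium phosphate pH 7.4 or in water adjusted to pH 7.4 with NaOH, filtered 0.22 μm, with ThT added. Wells held a 3 mm silica bead under 300 rpm orbital agitation at 25° C. Emission at 486 nm tracked continuously; lag time = 10% of transition above baseline.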

The target of a further data set is T1, human GIP receptor (Homo sapiens, UniProt P48546).
T1 construct: host or cells: HEK-293 cells, transient transfection (Lipofectamine 2000), cDNA in pCMV-Script vector
T1 sequence (P48546 22-466): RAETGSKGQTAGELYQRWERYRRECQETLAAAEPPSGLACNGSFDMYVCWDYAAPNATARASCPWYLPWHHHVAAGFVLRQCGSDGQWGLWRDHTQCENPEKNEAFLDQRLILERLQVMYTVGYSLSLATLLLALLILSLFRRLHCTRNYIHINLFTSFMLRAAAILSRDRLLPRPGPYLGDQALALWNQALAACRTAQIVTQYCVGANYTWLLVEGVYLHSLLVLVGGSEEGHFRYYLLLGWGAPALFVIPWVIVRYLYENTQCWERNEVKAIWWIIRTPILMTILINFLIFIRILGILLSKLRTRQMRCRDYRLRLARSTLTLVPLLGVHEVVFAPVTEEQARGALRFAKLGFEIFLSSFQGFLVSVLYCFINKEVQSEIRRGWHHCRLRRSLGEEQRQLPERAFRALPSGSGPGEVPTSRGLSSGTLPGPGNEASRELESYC
The data set is described as follows: cAMP assay Alternative 1 (CisBio assay), GIPR antagonism. In kind it is cell-based. Conditions: for cAMP antagonism % inhib: % inhibition of Emax. The method, then:
HEK293 cells were cultured in 10% CO2 and 37° C. in Dulbecco's modified Eagle's medium supplemented with 10% fetal bovine serum, 2 mM glutamine, 180 units/ml penicillin, and 45 µg/ml streptomycin. Transient transfection with hGIPR for the CisBio assay from Table 2C was performed by using Lipofectamine 2000.
The in vitro functional activity of compounds towards human GIP receptor can also be determined in HEK-293 cells transiently expressing the receptor. On the day of the assay, cells were resuspended in HBSS buffer (Gibco, 14025-50) supplemented with […] (Gibco, 15630-106), 0.1% Pluronic F-68 (Gibco, 24040-032) and 0.1% casein (Sigma, C4765), and plated in 384-well plates at a density of 5000 cells/well. The GIP peptide analogues of the present disclosure were diluted in HBSS buffer supplemented with 20 mM HEPES, 0.1% pluronic, 0.1% casein and 500 uM IBMX. […] The resulting decrease in intracellular cAMP was quantitatively determined using the CisBio cAMP Dynamic 2 HTRF Assay Kit. The assay is based on a competition between native cAMP produced by cells and cAMP labeled with the dye d2 for binding to a cryptate labeled antibody. The specific signal (i.e. energy transfer signal) is inversely proportional to the concentration of cAMP in the sample.
The cAMP-d2 conjugate and the antibody anti-cAMP-Cryptate, both diluted in lysis buffer provided in the kit, were added to the cells according to the manufacturer's protocol. The resulting competitive assay was incubated for 60 minutes at room temperature, and the signal was detected by using a PerkinElmer Envision® instrument with excitation at 320 nm and emission at 665 nm and 620 nm. The HTRF ratio (emission at 665 nm/620 nm*10,000) is inversely proportional to the amount of cAMP present and is converted to nM cAMP per well using a cAMP standard curve. The dose-response curves were fitted using the non-linear regression analysis (four-logistic parameter equation) in GraphPad Prism, whereby pIC50 values were estimated. To test for agonistic properties at the GIP receptor, compounds were diluted and added to cells as described above and incubated for 30 min at 37° C. The resulting increase in intracellular cAMP was determined using the CisBio cAMP Dynamic 2 HTRF Assay Kit as described above.
The dose-response curves were fitted using the non-linear regression analysis (four-logistic parameter equation) in GraphPad Prism, whereby pIC50 values were estimated.

Regarding `CC[C@H](C)[C@H](NC(=O)[C@H](CCCCN)NC(=O)[C@H](CCC(=O)O)NC(=O)[C@H](CC(C)C)NC(=O)C(C)(C)NC(=O)[C@@H](NC(=O)[C@H](CO)NC(=O)[C@H](Cc1ccc(O)cc1)NC(=O)[C@H](CCC(=O)O)NC(=O)[C@H](CO)NC(=O)[C@@H](NC(=O)[C@H](Cc1ccccc1)NC(=O)[C@@H](NC(=O)CNC(=O)[C@@H](N)CCC(=O)O)[C@@H](C)O)[C@@H](C)CC)[C@@H](C)CC)C(=O)N[C@@H](CCCCNC(=O)COCCOCCNC(=O)COCCOCCNC(=O)CC[C@H](NC(=O)CCCCCCCCCCCCCCCCC(=O)O)C(=O)O)C(=O)N[C@@H](CCC(N)=O)C(=O)N[C@@H](CCC(N)=O)C(=O)N[C@@H](CCC(=O)O)C(=O)N[C@@H](Cc1ccccc1)C(=O)N[C@H](C(=O)N[C@@H](CCC(=O)O)C(=O)N[C@@H](Cc1c[nH]c2ccccc12)C(=O)N[C@@H](CC(C)C)C(=O)N[C@@H](CC(C)C)C(=O)N[C@@H](C)C(=O)N[C@@H](CCC(N)=O)C(=O)N[C@@H](CCCCN)C(=O)N1CCC[C@H]1C(=O)N[C@@H](CO)C(=O)N[C@@H](CO)C(=O)NCC(=O)N[C@@H](C)C(=O)N1CCC[C@H]1C(=O)N1CCC[C@H]1C(=O)N1CCC[C@H]1C(=O)N[C@@H](CO)C(=O)O)C(C)C` [AT695] (H-EGTFISEYSI[Aib]LEKIK([AEEA-AEEA-γGlu-C18 diacid])QQEFVEWLLAQKPSSGAPPPS-OH; N-terminus assumed), the Visual appearance entry in data set [1] (1 mg/ml, TFA, Phosphate (7.4)) is “Clear”; in data set [1] (5 mg/ml, Na, MilliQ (8)) it was “Clear”. Besides, the “Avr lag time (h)” value is on record as “fnd (Fnd = fibrils not detected within experiment time (96 hours) with agitation.)” in data set [2] (1 mg/ml, TFA, Phosphate (7.4)) and “fnd (Fnd = fibrils not detected within experiment time (96 hours) with agitation.)” in data set [2] (5 mg/ml, Na, MilliQ (8)). Besides, the “cAMP antagonism % inhib” value on human GIP receptor (Table 2B) turned out to be 98%. Moreover, the IC50 on human GIP receptor (Table 2B, HEK-293 cells transiently expressing hGIPR, agonist GIP1-42 at EC50, read-out: cAMP antagonism) came to 0.794 nM.

As for `CC[C@H](C)[C@H](NC(=O)[C@H](CCCCN)NC(=O)[C@H](CC(=O)O)NC(=O)[C@H](CC(C)C)NC(=O)C(C)(C)NC(=O)[C@@H](NC(=O)[C@H](CO)NC(=O)[C@H](Cc1ccc(O)cc1)NC(=O)[C@H](CC(=O)O)NC(=O)[C@H](CO)NC(=O)[C@@H](NC(=O)[C@H](Cc1ccccc1)NC(=O)[C@@H](NC(=O)CNC(=O)[C@@H](N)CCC(=O)O)[C@@H](C)O)[C@@H](C)CC)[C@@H](C)CC)C(=O)N[C@@H](CCCCNC(=O)COCCOCCNC(=O)COCCOCCNC(=O)CC[C@H](NC(=O)CCCCCCCCCCCCCCCCC(=O)O)C(=O)O)C(=O)N[C@@H](CCC(N)=O)C(=O)N[C@@H](CCC(N)=O)C(=O)N[C@@H](CC(=O)O)C(=O)N[C@@H](Cc1ccccc1)C(=O)N[C@H](C(=O)N[C@@H](CCC(=O)O)C(=O)N[C@@H](Cc1c[nH]c2ccccc12)C(=O)N[C@@H](CC(C)C)C(=O)N[C@@H](CC(C)C)C(=O)N[C@@H](C)C(=O)N[C@@H](CCC(N)=O)C(=O)N[C@@H](CCCCN)C(=O)N1CCC[C@H]1C(=O)N[C@@H](CO)C(=O)N[C@@H](CO)C(=O)NCC(=O)N[C@@H](C)C(=O)N1CCC[C@H]1C(=O)N1CCC[C@H]1C(=O)N1CCC[C@H]1C(=O)N[C@@H](CO)C(=O)O)C(C)C` [AT685] (H-EGTFISDYSI[Aib]LDKIK([AEEA-AEEA-γGlu-C18 diacid])QQDFVEWLLAQKPSSGAPPPS-OH; N-terminus assumed), the Visual appearance entry in data set [1] (1 mg/ml, TFA, Phosphate (7.4)) was “Clear”. Further, the “Avr lag time (h)” value in data set [2] (1 mg/ml, TFA, Phosphate (7.4)) is given as “fnd (Fnd = fibrils not detected within experiment time (96 hours) with agitation.)”. Moreover, the “cAMP antagonism % inhib” value at human GIP receptor (Table 2B) came to 83%.

Turning to `CC[C@H](C)[C@H](NC(=O)[C@H](CO)NC(=O)[C@H](Cc1ccc(O)cc1)NC(=O)[C@H](CC(=O)O)NC(=O)[C@H](CO)NC(=O)[C@@H](NC(=O)[C@H](Cc1ccccc1)NC(=O)[C@@H](NC(=O)CNC(=O)CCCC(=O)O)[C@@H](C)O)[C@@H](C)CC)C(=O)N[C@@H](C)C(=O)N[C@@H](CCSC)C(=O)N[C@@H](CC(=O)O)C(=O)N[C@@H](CCCCN)C(=O)N[C@H](C(=O)N[C@@H](CCCCNC(=O)CCCCCCCCCCCCCCC(=O)O)C(=O)N[C@@H](CCC(N)=O)C(=O)N[C@@H](CCC(N)=O)C(=O)N[C@@H](CC(=O)O)C(=O)N[C@@H](Cc1ccccc1)C(=O)N[C@H](C(=O)N[C@@H](CC(N)=O)C(=O)N[C@@H](Cc1c[nH]c2ccccc12)C(=O)N[C@@H](CC(C)C)C(=O)N[C@@H](CC(C)C)C(=O)N[C@@H](C)C(=O)N[C@@H](CCC(N)=O)C(=O)N[C@@H](CCCCN)C(=O)N1CCC[C@H]1C(=O)N[C@@H](CO)C(=O)N[C@@H](CO)C(=O)NCC(=O)N[C@@H](C)C(=O)N1CCC[C@H]1C(=O)N1CCC[C@H]1C(=O)N1CCC[C@H]1C(=O)N[C@@H](CO)C(=O)O)C(C)C)[C@@H](C)CC` [AT677] (Glutaryl-GTFISDYSIAMDKIK(C16 diacid)QQDFVNWLLAQKPSSGAPPPS-OH), the Visual appearance entry in data set [1] (1 mg/ml, TFA, Phosphate (7.4)) is listed as “Clear”. Further, the “Avr lag time” value is below 24 h in data set [2] (1 mg/ml, Na, MilliQ (8)) and 16.5 ± 2.3 h in data set [2] (1 mg/ml, TFA, Phosphate (7.4)). The compound also showed an IC50 against human GIP receptor of 0.447 nM. The “cAMP antagonism % inhib” value on human GIP receptor (Table 2B) is reported as 93%.

With `CC[C@H](C)[C@H](NC(=O)[C@H](CCCCN)NC(=O)[C@H](CCC(=O)O)NC(=O)[C@H](CC(C)C)NC(=O)C(C)(C)NC(=O)[C@@H](NC(=O)[C@H](CO)NC(=O)[C@H](Cc1ccc(O)cc1)NC(=O)[C@H](CCC(=O)O)NC(=O)[C@H](CO)NC(=O)[C@@H](NC(=O)[C@H](Cc1ccccc1)NC(=O)[C@@H](NC(=O)CNC(=O)[C@@H](N)CCC(=O)O)[C@@H](C)O)[C@@H](C)CC)[C@@H](C)CC)C(=O)N[C@@H](CCCCNC(=O)CCCCCCCCCCCCCCC(=O)O)C(=O)N[C@@H](CCC(N)=O)C(=O)N[C@@H](CCC(N)=O)C(=O)N[C@@H](CCC(=O)O)C(=O)N[C@@H](Cc1ccccc1)C(=O)N[C@H](C(=O)N[C@@H](CCC(=O)O)C(=O)N[C@@H](Cc1c[nH]c2ccccc12)C(=O)N[C@@H](CC(C)C)C(=O)N[C@@H](CC(C)C)C(=O)N[C@@H](C)C(=O)N[C@@H](CCC(N)=O)C(=O)N[C@@H](CCCCN)C(=O)N1CCC[C@H]1C(=O)N[C@@H](CO)C(=O)N[C@@H](CO)C(=O)NCC(=O)N[C@@H](C)C(=O)N1CCC[C@H]1C(=O)N1CCC[C@H]1C(=O)N1CCC[C@H]1C(=O)N[C@@H](CO)C(=O)O)C(C)C` [AT673] (H-EGTFISEYSI[Aib]LEKIK(C16 diacid)QQEFVEWLLAQKPSSGAPPPS-OH; N-terminus assumed), the Visual appearance entry was “Clear” in data set [1] (1 mg/ml, TFA, Phosphate (7.4)); “Clear” in data set [1] (5 mg/ml, Na, MilliQ (8)); “Clear” in data set [1] (7.5 mg/ml, Na, MilliQ (8)); “Clear” in data set [1] (15 mg/ml, Na, MilliQ (8)). For the same compound, the “Avr lag time (h)” value in data set [2] (1 mg/ml, TFA, Phosphate (7.4)) is on record as “fnd (Fnd = fibrils not detected within experiment time (96 hours) with agitation.)”; in data set [2] (5 mg/ml, Na, MilliQ (8)) it was “fnd (Fnd = fibrils not detected within experiment time (96 hours) with agitation.)”; in data set [2] (7.5 mg/ml, Na, MilliQ (8)), “fnd (Fnd = fibrils not detected within experiment time (96 hours) with agitation.)”; in data set [2] (15 mg/ml, Na, MilliQ (8)) it was “fnd (Fnd = fibrils not detected within experiment time (96 hours) with agitation.)”. The “cAMP antagonism % inhib” value on human GIP receptor (Table 2B) is reported as 94%.
